Experiment [1] in a line: Cytotoxicity against human KB3 cells after 72 hrs by MTS assay. It counts as functional. The following applies: KB3, 72 h. (Formazan colour is commonly taken as a measure of viable cells.)
Experiment [2] in a line: Antiproliferative activity against human U87 cells expressing GFP after 3 days by flash-cytometry. It counts as functional, U-87MG ATCC. The following applies: U-87 MG, 72 h, read-out: ED50 (the source's name).
Experiment [3] is described as follows: Cytotoxicity against human U373 cells by MTT assay. It counts as functional, cell-based, U-373MG ATCC. The following applies: U373 MG.
For experiment [4], the system named is PC-3. The experiment can be described thus: Cytotoxicity against human PC3 cells by MTT assay. It counts as functional, cell-based.
The subject of experiment [5] is LoVo. The experiment can be described thus: Cytotoxicity against human LoVo cells by MTT assay. It counts as functional, cell-based.
Experiment [6] deals with BXPC-3. The experiment can be described thus: Cytotoxicity against human BxPC3 cells by MTT assay. It counts as functional, cell-based.
Experiment [7] in a line: Cytotoxicity against human Hs683 cells by MTT assay. The following applies: Hs 683. It counts as functional, cell-based.
The test system of experiment [8] is T98G. The experiment can be described thus: Cytotoxicity against human T98G cells by MTT assay. It counts as functional, cell-based.
Experiment [9] deals with MCF7. The experiment can be described thus: Cytotoxicity against human MCF7 cells by MTT assay. It counts as functional, cell-based.
The test system of experiment [10] is A549. The experiment can be described thus: Cytotoxicity against human A549 cells by MTT assay. It counts as functional, cell-based.
The subject of experiment [11] is Nucleic Acid. The experiment can be described thus: Binding affinity to calf thymus DNA assessed as DNA cleavage at 2 to 100 uM by electrophoresis. It counts as nucleic-acid assay. The following applies: Bos taurus.
In experiment [12] the test system is Nucleic Acid. The experiment can be described thus: Binding affinity to calf thymus DNA assessed as DNA alkylation at 2 to 100 uM after 24 hrs. It counts as nucleic-acid assay. Particulars: Bos taurus.
In experiment [13] the test system is Nucleic Acid. The experiment can be described thus: Binding affinity to calf thymus DNA at 2 to 100 uM by standard spectrometry. It counts as nucleic-acid assay. The following applies: Bos taurus.
Experiment [14] in a line: Cytotoxicity against human KB3-1 cells assessed as reduction of glutathione level after 72 hrs by MTT assay. It counts as functional. Particulars: KB 3-1, 72 h.
The subject of experiment [15] is Nucleic Acid. The experiment can be described thus: Binding affinity to calf thymus DNA at 2 to 100 uM by EMSA. It counts as nucleic-acid assay. The following applies: Bos taurus. In general terms: A gel shift assay detects complexes by their altered migration in electrophoresis.
Experiment [16] is described as follows: Cytotoxicity against human KB3-1 cells assessed as reduction of glutathione level after 72 hrs by MTT assay pretreated with buthionin sulfoximine. The following applies: KB 3-1. It counts as functional.

SMILES strings stand for the structures. The source made the active and inactive calls. The rule behind the calls is not given here. Where only a bound is given, the exact number is not on record here.

As a reminder, the CC50 is the concentration giving 50% cytotoxicity. One may read the IC50 as the point on the concentration scale where inhibition reaches its midpoint. A low value points to inhibition by little substance.

`Oc1ccc(CNCc2cccc(C(F)(F)F)c2)c2cccnc12` came in with a CC50 in experiment [1] of 200 nM. The EC50 in experiment [2] turned out to be 180 nM.

As to `Cc1ccc(CNCc2ccc(O)c3ncccc23)cc1`, the EC50 in experiment [2] is over 10000 nM.

In experiment [1], `Oc1ccc(CN(Cc2ccc(O)c3ncccc23)Cc2ccc(O)c3ncccc23)c2cccnc12` had a CC50 of over 10000 nM. In addition, the EC50 in experiment [2] was over 10000 nM.

Take `Oc1ccc(CN(Cc2ccccc2)Cc2ccc(O)c3ncccc23)c2cccnc12`: the IC50 in [3] is 357 nM; in experiment [4], 258 nM; in experiment [5], 91 nM; in experiment [6], 7440 nM; in experiment [7], 76 nM; in [8] it was 249 nM. Besides, the IC50 came to 97 nM in experiment [9] and 544 nM in [10]. In [1], half-maximal cytotoxicity (CC50) was put at 20 nM. In addition, the EC50 in [2] was under 500 nM.

On to `Oc1ccc(CN(Cc2cccc(C(F)(F)F)c2)Cc2ccc(O)c3ncccc23)c2cccnc12`, for which the IC50 in [3] stood at 65 nM; in experiment [4], 37 nM; in experiment [5], 94 nM; in experiment [6], 167 nM; in experiment [7], 36 nM; in [8], 57 nM. Further, the IC50 is 30 nM in experiment [9] and 38 nM in experiment [10]. This compound also had a CC50 in experiment [1] of 2200 nM. In addition, the EC50 in experiment [2] was found to be 2000 nM.

For the compound `Oc1ccc(CN(CCc2ccccn2)Cc2ccc(O)c3ncccc23)c2cccnc12`, the CC50 in experiment [1] was over 10000 nM.

Regarding `Cc1ccc(C(=O)NCc2ccc(O)c3ncccc23)cc1`, the CC50 in experiment [1] was 1000 nM. The EC50 in experiment [2] turned out to be 10000 nM.

As for `Oc1ccc(CN(Cc2ccc(OC(F)(F)F)cc2)Cc2ccc(O)c3ncccc23)c2cccnc12`, in experiment [1], the CC50 worked out at 100 nM.

As to `Oc1ccc(CN(Cc2cccs2)Cc2ccc(O)c3ncccc23)c2cccnc12`, the IC50 in [3] is 85 nM; in [4], 44 nM; in experiment [5], 40 nM; in experiment [6] it was 89 nM; in experiment [7], 35 nM; in experiment [8] it was 88 nM. In addition, the IC50 in experiment [9] came out at 35 nM; in experiment [10], 27 nM. The CC50 in experiment [1] amounted to 2 nM. In experiment [2], the EC50 is under 200 nM.

`Oc1ccc(CN(CCN2CCCC2)Cc2ccc(O)c3ncccc23)c2cccnc12`: the midpoint of cytotoxicity in experiment [1], the CC50, lay at 1000 nM. The EC50 in [2] turned out to be 200 nM.

On to `Oc1ccc(CN(Cc2ccccc2)Cc2ccccc2)c2cccnc12`, for which, in experiment [1], the midpoint of cytotoxicity, the CC50, lay at 1000 nM. In experiment [2], the EC50 came out at 5000 nM.

Compound `CC(C)(C)OC(=O)N(Cc1cccc(C(F)(F)F)c1)Cc1ccc(O)c2ncccc12` showed a CC50 in [1] of 1000 nM. The EC50 in experiment [2] is over 10000 nM.

Take `Cn1cccc1CN(Cc1ccc(O)c2ncccc12)Cc1ccc(O)c2ncccc12`: the EC50 in [2] came out at 2000 nM.

In the case of `COc1ccc(CN(Cc2ccc(C(F)(F)F)cc2)Cc2ccc(O)c3ncccc23)c2cccnc12`, in experiment [1], the CC50 is over 10000 nM.

For `Oc1ccc(CN(Cc2cc(C(F)(F)F)cc(C(F)(F)F)c2)Cc2ccc(O)c3ncccc23)c2cccnc12`, the IC50 in experiment [3] is 96 nM; in experiment [4], 71 nM; in experiment [5] it was 10 nM; in [6], 79 nM; in experiment [7], 181 nM; in experiment [8] it was 72 nM. In addition, the IC50 in experiment [9] came out at 38 nM; in experiment [10], 9 nM. Moreover, half-maximal cytotoxicity in experiment [1] (CC50) was put at 1000 nM. The EC50 in experiment [2] is under 200 nM.

As to `Oc1ccc(CN(Cc2ccccc2C(F)(F)F)Cc2ccc(O)c3ncccc23)c2cccnc12`, the IC50 in experiment [3] is 78 nM; in experiment [4], 179 nM; in [5], 93 nM; in experiment [6], 274 nM; in experiment [7] it was 64 nM; in experiment [8], 210 nM. Further, the IC50 came to 88 nM in [9] and 46 nM in experiment [10]. The compound also gave a CC50 in [1] of 100 nM. Besides, in [2], the EC50 is under 200 nM.

With `Oc1ccc(CNCc2ccccc2)c2cccnc12`, the CC50 in experiment [1] is over 1000 nM.

For `CC(C)(C)OC(=O)N(Cc1cc(C(F)(F)F)cc(C(F)(F)F)c1)Cc1ccc(O)c2ncccc12`, the half-maximal cytotoxic concentration (CC50) in experiment [1] was 1000 nM.

With `Oc1ccc(CN(Cc2ccc(C(F)(F)F)cc2)Cc2ccc(O)c3ncccc23)c2cccnc12`, the IC50 in experiment [3] was 44 nM; in [4], 66 nM; in [5], 10 nM; in [6] it was 4300 nM; in experiment [7], 10 nM; in experiment [8], 99 nM. The IC50 in experiment [9] is 34 nM; in [10], 8 nM. Moreover, the outcome in [11], in experiment [12], in experiment [13] and in experiment [15] was inactive. Besides, the CC50 in experiment [1] stood at 1 nM; in [14], 33 nM; in experiment [16], 70 nM. In addition, the EC50 in experiment [2] was under 200 nM.

Consider `CC(C)(C)OC(=O)N(Cc1ccc(C(F)(F)F)cc1)Cc1ccc(O)c2ncccc12`, for which, in [1], the CC50 was 10000 nM. Also, the EC50 in experiment [2] turned out to be 2000 nM.

The compound `Oc1ccc(CN(Cc2ccc(O)c3ncccc23)CC2CCCO2)c2cccnc12` (configuration not stated) registered a CC50 in experiment [1] of 10000 nM. In [2], the EC50 is 5000 nM.

Take `Oc1ccc(CNCc2ccc(C(F)(F)F)cc2)c2cccnc12`: in experiment [1], half-maximal cytotoxicity (CC50) was put at 10000 nM. The EC50 in experiment [2] is over 10000 nM.

Turning to `Oc1ccc(CN(Cc2ccc(C(F)(F)F)cc2)Cc2cccc3ncccc23)c2cccnc12`, the midpoint of cytotoxicity in experiment [1], the CC50, lay at 10000 nM. The EC50 in [2] is over 10000 nM.

With `O=C(O)C1CCC(CN(Cc2ccc(O)c3ncccc23)Cc2ccc(O)c3ncccc23)CC1` (configuration not stated), the IC50 came to 3730 nM in experiment [3]; 9940 nM in experiment [4]; 422 nM in experiment [5]; 4340 nM in experiment [6]; 2860 nM in experiment [7]; 9760 nM in experiment [8]. In addition, the IC50 in experiment [9] is 9460 nM; in experiment [10], 661 nM. Moreover, in [1], the CC50 is 1100 nM.

Regarding `Oc1ccc(CN(Cc2cccc(I)c2)Cc2ccc(O)c3ncccc23)c2cccnc12`, the concentration for half-maximal inhibition (IC50) in experiment [3] stood at 5600 nM; in [4], 394 nM; in [5] it was 393 nM; in [6] it was 2590 nM; in [7] it was 479 nM; in experiment [8], 446 nM. Further, the results for the IC50 in [9] and in experiment [10] were 374 nM and 350 nM, respectively. Moreover, the CC50 in [1] was 1000 nM. For the same compound, the EC50 in [2] worked out at 2000 nM.

The values are drawn from ChEMBL document CHEMBL1153753, “Structure-activity relationships and mechanism of action of antitumor bis 8-hydroxyquinoline substituted benzylamines” (Eur J Med Chem, 2010).
